Where only a bound is given, the exact number is not on record here.

Experimental findings from patent US12594276B2, “Inhibitors of human immunodeficiency virus replication” (ViiV Healthcare UK (No.5) Limited, priority 2024, dated 2026) are described below.

A short description of series [1]: Compound cytotoxicity, XTT-based colorimetric assay. Conditions: human; uninfected MT2 cells, day 4, XTT; read-out: CC50. It is filed as cell-based. The method, boiled down: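 CC50 derived from XTT colorimetric signal measured on day 4 in MT2 cells that were not infected. All other steps followed the antiviral assay protocol.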
A general note: Tetrazolium dyes change colour on reduction, which living cells bring about.

Series [2] concerns recombinant NL4-3 virus (nef section replaced with Renilla luciferase gene) in MT-2 cells. The series can be described thus: HIV cell culture assay (antiviral activity, luciferase readout). Conditions: Renilla, NL43, MT-2 cells infected for 4-5 days with recombinant NL4-3 Renilla luciferase virus. The class given is cell-based. The method, boiled down:
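Reporter virus is produced in 293T cells and its titer set in MT-2 cells by luciferase activity. MT-2 cells are then infected in the presence of serially diluted compound for 4-5 days. Luciferase is quantified and EC50 fitted to the median effect equation.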

As for `COCCCn1nc(NS(C)(=O)=O)c2c(Cl)ccc(-n3c([C@H](Cc4cc(F)cc(F)c4)NC(=O)Cn4nc(C(F)F)c5c4C(F)(F)[C@@H]4C[C@H]54)nc4nc(C5CCC(F)(F)CC5)cc(NCCN5C[C@@H](C)O[C@@H](C)C5)c4c3=O)c21` (atropisomer, axis not shown; (P)) [Example 475], the CC50 at 4 days in series [1] was greater than 20 nM. Besides, the EC50 in series [2] turned out to be 0.004 nM.

For the compound `COCCCn1nc(NS(C)(=O)=O)c2c(Cl)ccc(-n3c([C@H](Cc4cc(F)cc(F)c4)NC(=O)Cn4nc(C(F)F)c5c4C(F)(F)[C@@H]4C[C@H]54)nc4nc(C5CCC(F)(F)CC5)cc(NCCN5CCOC(C)(C)C5)c4c3=O)c21` (atropisomer, axis not shown; (P)) [Example 476, N-[(1S)-1-[(3P)-3-[4-chloro-3-methanesulfonamido-1-(3-methoxypropyl)-1H-indazol-7-yl]-7-(4,4-difluorocyclohexyl)-5-{[2-(2,2-dimethylmorpholin-4-yl)ethyl]amino}-4-oxo-3H,4H-pyrido[2,3-d]pyrimidin-2-yl]-2-(3,5-difluorophenyl)ethyl]-2-[(2S,4R)-9-(difluoromethyl)-5,5-difluoro-7,8-diazatricyclo[4.3.0.0^2,^4]nona-1(6),8-dien-7-yl]acetamide], the CC50 at 4 days in series [1] is greater than 20 nM. Moreover, the EC50 in series [2] amounted to 0.005 nM.

`COCCCn1nc(NS(C)(=O)=O)c2c(Cl)ccc(-n3c([C@H](Cc4cc(F)cc(F)c4)NC(=O)Cn4nc(C(F)F)c5c4C(F)(F)[C@@H]4C[C@H]54)nc4nc(C5CCC(F)(F)CC5)cc(NCCN5CCOCC5(C)C)c4c3=O)c21` (atropisomer, axis not shown; (P)) [Example 477, N-[(1S)-1-[(3P)-3-[4-chloro-3-methanesulfonamido-1-(3-methoxypropyl)-1H-indazol-7-yl]-7-(4,4-difluorocyclohexyl)-5-{[2-(3,3-dimethylmorpholin-4-yl)ethyl]amino}-4-oxo-3H,4H-pyrido[2,3-d]pyrimidin-2-yl]-2-(3,5-difluorophenyl)ethyl]-2-[(2S,4R)-9-(difluoromethyl)-5,5-difluoro-7,8-diazatricyclo[4.3.0.0^2,^4]nona-1(6),8-dien-7-yl]acetamide]: in series [1], the CC50 at 4 days is greater than 20 nM. For the same compound, the EC50 in series [2] is 0.013 nM.

Turning to `Cc1cc(C2CCC(F)(F)CC2)nc2nc([C@H](Cc3cc(F)cc(F)c3)NC(=O)Cn3nc(C(F)F)c4c3C(F)(F)[C@@H]3C[C@H]43)n(-c3ccc(Cl)c4c(NS(C)(=O)=O)nn(CCN5CCOC(C)(C)C5)c34)c(=O)c12` (atropisomer, axis not shown; (P)) [Example 479, N-[(1S)-1-[(3P)-3-{4-chloro-1-[2-(2,2-dimethylmorpholin-4-yl)ethyl]-3-methanesulfonamido-1H-indazol-7-yl}-7-(4,4-difluorocyclohexyl)-5-methyl-4-oxo-3H,4H-pyrido[2,3-d]pyrimidin-2-yl]-2-(3,5-difluorophenyl)ethyl]-2-[(2S,4R)-9-(difluoromethyl)-5,5-difluoro-7,8-diazatricyclo[4.3.0.0^2,^4]nona-1(6),8-dien-7-yl]acetamide], the CC50 at 4 days in series [1] was greater than 20 nM. For the same compound, in series [2], the EC50 stood at 0.004 nM.

For `Cc1cc(C2CCC(F)(F)CC2)nc2nc([C@H](Cc3cc(F)cc(F)c3)NC(=O)Cn3nc(C4CC4)c4c3C[C@@H]3C[C@H]43)n(-c3ccc(Cl)c4c(NS(C)(=O)=O)nn(CCN5CCOC(C)(C)C5)c34)c(=O)c12` (atropisomer, axis not shown; (P)) [Example 480, N-[(1S)-1-[(3P)-3-{4-chloro-1-[2-(2,2-dimethylmorpholin-4-yl)ethyl]-3-methanesulfonamido-1H-indazol-7-yl}-7-(4,4-difluorocyclohexyl)-5-methyl-4-oxo-3H,4H-pyrido[2,3-d]pyrimidin-2-yl]-2-(3,5-difluorophenyl)ethyl]-2-[(2S,4S)-9-cyclopropyl-7,8-diazatricyclo[4.3.0.0^2,^4]nona-1(6),8-dien-7-yl]acetamide], the CC50 at 4 days in series [1] was greater than 20 nM. Besides, in series [2], the EC50 turned out to be 0.005 nM.

Consider `COCCCn1nc(NS(C)(=O)=O)c2c(Cl)ccc(-n3c([C@H](Cc4cc(F)cc(F)c4)NC(=O)Cn4nc(C(F)F)c5c4C(F)(F)[C@@H]4C[C@H]54)nc4nc(C5CCC(F)(F)CC5)cc(NCC5(F)CCOCC5)c4c3=O)c21` (atropisomer, axis not shown; (P)) [Example 484, N-[(1S)-1-[(3P)-3-[4-chloro-3-methanesulfonamido-1-(3-methoxypropyl)-1H-indazol-7-yl]-7-(4,4-difluorocyclohexyl)-5-{[(4-fluorooxan-4-yl)methyl]amino}-4-oxo-3H,4H-pyrido[2,3-d]pyrimidin-2-yl]-2-(3,5-difluorophenyl)ethyl]-2-[(2S,4R)-9-(difluoromethyl)-5,5-difluoro-7,8-diazatricyclo[4.3.0.0^2,^4]nona-1(6),8-dien-7-yl]acetamide], for which the CC50 at 4 days in series [1] was greater than 20 nM. Also, the EC50 in series [2] was 0.006 nM.

Consider `COCCCn1nc(NS(C)(=O)=O)c2c(Cl)ccc(-n3c([C@H](Cc4cc(F)cc(F)c4)NC(=O)Cn4nc(C(F)F)c5c4C(F)(F)[C@@H]4C[C@H]54)nc4nc(C5CCC(F)(F)CC5)cc(NCC5(C)CCOCC5)c4c3=O)c21` (atropisomer, axis not shown; (P)) [Example 485, N-[(1S)-1-[(3P)-3-[4-chloro-3-methanesulfonamido-1-(3-methoxypropyl)-1H-indazol-7-yl]-7-(4,4-difluorocyclohexyl)-5-{[(4-methyloxan-4-yl)methyl]amino}-4-oxo-3H,4H-pyrido[2,3-d]pyrimidin-2-yl]-2-(3,5-difluorophenyl)ethyl]-2-[(2S,4R)-9-(difluoromethyl)-5,5-difluoro-7,8-diazatricyclo[4.3.0.0^2,^4]nona-1(6),8-dien-7-yl]acetamide], for which the CC50 at 4 days in series [1] is greater than 20 nM. Also, the EC50 in series [2] came to 0.016 nM.

On to `COCCCn1nc(NS(C)(=O)=O)c2c(Cl)ccc(-n3c([C@H](Cc4cc(F)cc(F)c4)NC(=O)Cn4nc(C(F)F)c5c4C(F)(F)[C@@H]4C[C@H]54)nc4nc(C5CCC(F)(F)CC5)cc(CN5C[C@H](F)C[C@H](F)C5)c4c3=O)c21` (atropisomer, axis not shown; (P)) [Example 488, N-[(1S)-1-[(3P)-3-[4-chloro-3-methanesulfonamido-1-(3-methoxypropyl)-1H-indazol-7-yl]-7-(4,4-difluorocyclohexyl)-5-{[(3R,5S)-3,5-difluoropiperidin-1-yl]methyl}-4-oxo-3H,4H-pyrido[2,3-d]pyrimidin-2-yl]-2-(3,5-difluorophenyl)ethyl]-2-[(2S,4R)-9-(difluoromethyl)-5,5-difluoro-7,8-diazatricyclo[4.3.0.0^2,^4]nona-1(6),8-dien-7-yl]acetamide], for which the CC50 at 4 days in series [1] is greater than 20 nM. Further, in series [2], the EC50 amounted to 0.009 nM.

`COCCCn1nc(NS(C)(=O)=O)c2c(Cl)ccc(-n3c([C@H](Cc4cc(F)cc(F)c4)NC(=O)Cn4nc(C(F)F)c5c4C(F)(F)[C@@H]4C[C@H]54)nc4nc(C5CCC(F)(F)CC5)cc(CN5CCC(F)(F)CC5)c4c3=O)c21` (atropisomer, axis not shown; (P)) [Example 489, N-[(1S)-1-[(3P)-3-[4-chloro-3-methanesulfonamido-1-(3-methoxypropyl)-1H-indazol-7-yl]-7-(4,4-difluorocyclohexyl)-5-[(4,4-difluoropiperidin-1-yl)methyl]-4-oxo-3H,4H-pyrido[2,3-d]pyrimidin-2-yl]-2-(3,5-difluorophenyl)ethyl]-2-[(2S,4R)-9-(difluoromethyl)-5,5-difluoro-7,8-diazatricyclo[4.3.0.0^2,4]nona-1(6),8-dien-7-yl]acetamide]: in series [1], the CC50 at 4 days is greater than 20 nM. Further, the 50% effective concentration (EC50) in series [2] stood at 0.018 nM.

Regarding `CS(=O)(=O)Nc1nn(CCN2C[C@H](F)C[C@H](F)C2)c2c(-n3c([C@H](Cc4cc(F)cc(F)c4)NC(=O)Cn4nc(C(F)F)c5c4C(F)(F)[C@@H]4C[C@H]54)nc4nc(C5CCC(F)(F)CC5)cc(NCCN5CCOCC5)c4c3=O)ccc(Cl)c12` (atropisomer, axis not shown; (P)) [Example 491, N-[(1S)-1-[(3P)-3-(4-chloro-1-{2-[(3R,5S)-3,5-difluoropiperidin-1-yl]ethyl}-3-methanesulfonamido-1H-indazol-7-yl)-7-(4,4-difluorocyclohexyl)-5-{[2-(morpholin-4-yl)ethyl]amino}-4-oxo-3H,4H-pyrido[2,3-d]pyrimidin-2-yl]-2-(3,5-difluorophenyl)ethyl]-2-[(2S,4R)-9-(difluoromethyl)-5,5-difluoro-7,8-diazatricyclo[4.3.0.0^2,^4]nona-1(6),8-dien-7-yl]acetamide], the CC50 at 4 days in series [1] was greater than 20 nM. For the same compound, the EC50 in series [2] was found to be 0.009 nM.

On to `COCCCn1nc(NS(C)(=O)=O)c2c(Cl)ccc(-n3c([C@H](Cc4cc(F)cc(F)c4)NC(=O)Cn4nc(C(F)F)c5c4C(F)(F)[C@@H]4C[C@H]54)nc4nc(C5CCC(F)(F)CC5)cc(NCCN5CCC(F)(F)CC5)c4c3=O)c21` (atropisomer, axis not shown; (P)) [Example 498, N-[(1S)-1-[(3P)-3-[4-chloro-3-methanesulfonamido-1-(3-methoxypropyl)-1H-indazol-7-yl]-7-(4,4-difluorocyclohexyl)-5-{[2-(4,4-difluoropiperidin-1-yl)ethyl]amino}-4-oxo-3H,4H-pyrido[2,3-d]pyrimidin-2-yl]-2-(3,5-difluorophenyl)ethyl]-2-[(2S,4R)-9-(difluoromethyl)-5,5-difluoro-7,8-diazatricyclo[4.3.0.0^2,^4]nona-1(6),8-dien-7-yl]acetamide], for which, in series [1], the CC50 at 4 days is greater than 20 nM. Further, in series [2], the EC50 worked out at 0.018 nM.

By CC50 is commonly meant the concentration at which the toxic effect on the cells reaches its halfway point. By EC50 is commonly meant the concentration at which the effect is half-maximal.
